From patent US10266544B2, “Aryl substituted aminomethyl spectinomycin analogs as antibacterial agents” (ST. JUDE CHILDREN'S RESEARCH HOSPITAL, INC., priority 2013, dated 2019)
Counter-ions that a name gives are not always drawn. Like-named read-outs stand apart in the source and are kept apart here.

Tests used:
S. pneumoniae = assay: Resistance frequency determination and cross resistance of spontaneous mutants; assay type: cell-based, Streptococcus pneumoniae; conditions: cross resistance testing of 2 mutants
[1] = tested on: Streptococcus pneumoniae (R6); assay: MIC determination, microbroth dilution; assay type: cell-based
[2] = tested on: Enterococcus faecalis (ATCC 33186); assay: MIC determination, microbroth dilution; assay type: cell-based; conditions: ATCC33186; Enterococcus faecalis (ATCC 33186); read-out: MIC E.f.
[3] = tested on: Streptococcus pyogenes (ATCC 700294); assay: MIC determination, microbroth dilution; assay type: cell-based; conditions: ATCC700294; Streptococcus pyogenes (ATCC 700294); read-out: MIC S. py.
[4] = tested on: Staphylococcus aureus (ATCC 29213); assay: MIC determination, microbroth dilution; assay type: cell-based; conditions: ATCC29213; Staphylococcus aureus (ATCC 29213); read-out: MIC S.a.
[5] = tested on: Streptococcus pneumoniae clinical isolates representing several serotypes; assay: MIC determination, Streptococcus pneumoniae panel of clinical isolates (Table 7); assay type: cell-based; conditions: Streptococcus pneumoniae
[6] = tested on: MRSA, Staphylococcus aureus (NRS70); assay: MIC determination, microbroth dilution; assay type: cell-based; conditions: Staphylococcus aureus (NRS70); read-out: MIC MRSA
[7] = tested on: Escherichia coli (ATCC 700926); assay: MIC determination, microbroth dilution; assay type: cell-based; conditions: ATCC700926; Escherichia coli (ATCC 700926); read-out: MIC E.c.
Moraxella catarrhalis = assay: MIC determination (Table 6); assay type: cell-based
Yersinia pestis = assay: microbe, parasite or virus in culture; assay type: cell-based; conditions: read-out: MIC Y.p.
[8] = tested on: live vaccine strain (LVS) of Francisella tularensis; assay: microbe, parasite or virus in culture; assay type: cell-based; conditions: Francisella tularensis
E. coli K12 ΔtolC = assay: microbe, parasite or virus in culture; assay type: cell-based; conditions: Escherichia coli, read-out: MIC E.c. Δtolc
[9] = tested on: acinetobacter baumannii (ATCC 19606); assay: MIC determination, microbroth dilution; assay type: cell-based; conditions: ATCC19606
[10] = tested on: Neisseria meningitides (ATCC 13077); assay: Disc diffusion assay; assay type: cell-based; conditions: ATCC13077, 4 μg per disc, read-out: Zone of inhibition N.m.
[11] = tested on: Proteus vulgaris (ATCC 33420); assay: MIC determination, microbroth dilution; assay type: cell-based; conditions: ATCC33420
[12] = tested on: Haemophilus influenza (ATCC 49247); assay: microbe, parasite or virus in culture; assay type: cell-based; conditions: ATCC49247; Haemophilus influenza; 4 μg per disc; range of at least two experiments; read-out: Zone of inhibition H.i.
Bacillus anthracis = assay: microbe, parasite or virus in culture; assay type: cell-based; conditions: read-out: MIC B.a.
[13] = tested on: Proteus mirabilis (ATCC 25933); assay: MIC determination, microbroth dilution; assay type: cell-based; conditions: ATCC25933
[14] = tested on: Burkholderia cepacia (ATCC 25416); assay: MIC determination, microbroth dilution; assay type: cell-based; conditions: Burkholderia cepacia
[15] = tested on: Pseudomonas aeruginosa (PA01); assay: MIC determination, microbroth dilution; assay type: cell-based
[16] = tested on: M. tuberculosis clinical isolates; assay: microbe, parasite or virus in culture; assay type: cell-based; conditions: Mycobacterium tuberculosis, H37RV, read-out: MIC H37Rv
[17] = tested on: Bacillus anthracis, Sterne 34F2; assay: microbe, parasite or virus in culture; assay type: cell-based; conditions: STERNE34F2, read-out: MIC B.a.
[18] = tested on: Neisseria gonorrhoeae (ATCC 49226); assay: Disc diffusion assay; assay type: cell-based; conditions: ATCC49226, 4 μg per disc, read-out: Zone of inhibition N.g.
[19] = tested on: Klebsiella pneumoniae (ATCC 33495); assay: MIC determination, microbroth dilution; assay type: cell-based; conditions: ATCC33495
[20] = tested on: Neisseria gonorrhoeae (ATCC 49226); assay: Agar MIC determination (Alamar Blue); assay type: cell-based; conditions: ATCC49226, agar MIC, read-out: MIC N.g.
[21] = tested on: Bacillus subtilis (ATCC 23857); assay: MIC determination, microbroth dilution; assay type: cell-based; conditions: ATCC23857; Bacillus subtilis (ATCC 23857); read-out: MIC B.s.
[22] = tested on: Legionella pneumophila (ATCC 33153); assay: microbe, parasite or virus in culture; assay type: cell-based; conditions: ATCC33153, 72 h, read-out: Zone of inhibition L.p.
Listeria monocytogenes = assay: MIC determination (Table 6); assay type: cell-based
[23] = tested on: Stenotrophomonas maltophilia (ATCC 13637); assay: MIC determination, microbroth dilution; assay type: cell-based; conditions: ATCC13637; Stenotrophomonas maltophilia (ATCC 13637); read-out: MIC S.m.
[24] = Streptococcus pneumoniae (R6), read-out: MIC S. pn.
[25] = Streptococcus pneumoniae, S. pneumoniae R6, Drug Susceptible, read-out: MIC R6
[26] = BAA1407, S. pneumoniae BAA-1407, Macrolide Resistant, read-out: MIC BAA-1407
[27] = S. pneumoniae Daw7, PenG Resistant, read-out: MIC Daw7
[28] = S. pneumoniae Daw8, PenG Resistant, read-out: MIC Daw8
[29] = S. pneumoniae Daw9, PenG Resistant, read-out: MIC Daw9
[30] = S. pneumoniae Daw62, PenG Resistant, read-out: MIC Daw62
[31] = S. pneumoniae Daw64, PenG Resistant, read-out: MIC Daw64
[32] = S. pneumoniae OVA6, Macrolide Resistant, read-out: MIC OVA6
[33] = S. pneumoniae T4X, Drug Susceptible, read-out: MIC T4X
[34] = ATCC25416, read-out: MIC B.c., Burkholderia cepacia (ATCC 25416)
[35] = ATCC25416, read-out: MIC B.c., Burkholderia cepacia, Table 6

Structure (SMILES): NCC[C@H](O)C(=O)N[C@@H]1C[C@H](N)[C@@H](O[C@H]2O[C@H](CN)[C@@H](O)[C@H](O)[C@H]2O)[C@H](O)[C@H]1O[C@H]1O[C@H](CO)[C@@H](O)[C@H](N)[C@H]1O [amikacin]
- susceptibility of mutants resistant to 2 (S. pneumoniae): susceptible

Structure (SMILES): CC1(C)S[C@@H]2[C@H](NC(=O)[C@H](N)c3ccccc3)C(=O)N2[C@H]1C(=O)O [ampicillin]
- susceptibility of mutants resistant to 2 (S. pneumoniae): susceptible

Structure (SMILES): CCOc1ccc(CNC[C@]2(O)C[C@@H](C)O[C@H]3O[C@@H]4[C@@H](O)[C@H](NC)[C@H](O)[C@H](NC)[C@H]4O[C@]32O)cc1 [compound 4, 3′-(R)-3′-[(4-ethoxyl)benzylaminomethyl)]dihydrospectinomycin Trihydrochloride]
- MIC [1, 24]: 1.6 to 3.1 µg/mL
- MIC [1, 25]: 1.6 µg/mL
- MIC [2]: 12.5 to 25 µg/mL
- MIC [3]: 1.6 to 3.1 µg/mL
- MIC [4]: 25 to 50 µg/mL
- MIC [5, 26]: 6.3 µg/mL
- MIC ([5]; S. pneumoniae A66.1x, Drug Susceptible, read-out: MIC A66.1x): 0.8 µg/mL
- MIC ([5]; S. pneumoniae BHN97x, Drug Susceptible, read-out: MIC BHN97x): 1.6 µg/mL
- MIC ([5]; S. pneumoniae D39X, Drug Susceptible, read-out: MIC D39X): 0.8 µg/mL
- MIC [5, 27]: 3.1 µg/mL
- MIC [5, 28]: 1.6 µg/mL
- MIC [5, 29]: 3.1 µg/mL
- MIC [5, 30]: 3.1 µg/mL
- MIC [5, 31]: 3.1 µg/mL
- MIC [5, 32]: 3.1 µg/mL
- MIC [5, 33]: 1.6 µg/mL
- MIC [6]: 50 µg/mL
- MIC [7]: 25 to 50 µg/mL
- MIC (Moraxella catarrhalis): 3.1 to 6.3 µg/mL
- MIC (Yersinia pestis): > 200 µg/mL
- MIC ([8]; read-out: MIC F.t.): 0.8 to 3.1 µg/mL
- MIC (E. coli K12 ΔtolC): 6.3 µg/mL
- MIC [9]: ≥ 200 µg/mL
- zone of inhibition at 4 µg/disc [10]: 16 to 18 mm
- MIC [11]: > 200 µg/mL
- zone of inhibition at 4 µg/disc [12]: 15 to 18 mm
- MIC (Bacillus anthracis): 100 µg/mL
- MIC [13]: > 200 µg/mL
- MIC [14, 34]: > 200 µg/mL
- MIC [14, 35]: > 200 µg/mL
- MIC [15]: 100 to 200 µg/mL
- MIC [16]: 25 µg/mL
- MIC [17]: 100 µg/mL
- zone of inhibition at 4 µg/disc [18]: 15 to 17 mm
- MIC [19]: 100 to 200 µg/mL
- MIC [20]: 12.5 µg/mL
- MIC [21]: 12.5 to 25 µg/mL
- zone of inhibition at 4 µg/disc [22]: 18 to 33 mm
- MIC (Listeria monocytogenes): 6.3 to 12.5 µg/mL
- MIC [23]: 25 to 50 µg/mL

Structure (SMILES): CN[C@@H]1[C@H](O)[C@H](NC)[C@H]2O[C@]3(O)[C@H](O[C@@H]2[C@H]1O)O[C@H](C)C[C@@]3(O)CNCc1ccc(OC(F)(F)F)cc1 [compound 11, 3′-(R)-3′-[(4-trifluoromethoxyl)benzylaminomethyl)]dihydrospectinomycin Trihydrochloride]
- MIC [1, 24]: 3.1 µg/mL
- MIC [1, 25]: 3.1 µg/mL
- MIC [2]: 25 to 50 µg/mL
- MIC [3]: 1.6 µg/mL
- MIC [4]: 100 µg/mL
- MIC [5, 26]: 6.3 µg/mL
- MIC [5, 27]: 3.1 µg/mL
- MIC [5, 28]: 1.6 µg/mL
- MIC [5, 29]: 1.6 µg/mL
- MIC [5, 30]: 1.6 µg/mL
- MIC [5, 31]: 3.1 µg/mL
- MIC [5, 32]: 6.3 µg/mL
- MIC [5, 33]: 0.8 µg/mL
- MIC [6]: 100 to 200 µg/mL
- MIC [7]: 25 µg/mL
- MIC (Moraxella catarrhalis): 6.3 µg/mL
- MIC (Yersinia pestis): 200 µg/mL
- MIC [8]: 1.6 µg/mL
- MIC ([8]; read-out: MIC F.t.): 1.6 to 3.1 µg/mL
- MIC (E. coli K12 ΔtolC): 12.5 µg/mL
- MIC [9]: > 200 µg/mL
- zone of inhibition at 4 µg/disc [10]: 18 to 19 mm
- MIC [11]: > 200 µg/mL
- zone of inhibition at 4 µg/disc [12]: 16 mm
- MIC (Bacillus anthracis): 100 to 200 µg/mL
- MIC [13]: > 200 µg/mL
- MIC [14, 34]: > 200 µg/mL
- MIC [14, 35]: > 200 µg/mL
- MIC [15]: 100 to 200 µg/mL
- MIC [16]: 50 µg/mL
- MIC [17]: 100 to 200 µg/mL
- zone of inhibition at 4 µg/disc [18]: 16 to 20 mm
- MIC [19]: > 200 µg/mL
- MIC [20]: 12.5 µg/mL
- MIC [21]: 100 µg/mL
- zone of inhibition at 4 µg/disc [22]: 21 mm
- MIC (Listeria monocytogenes): 12.5 to 25 µg/mL
- MIC [23]: 50 to 100 µg/mL
